Results as given in the NIST ThermoML archive (doi:10.1021/je5004719).

Experiment: xn = mol fraction of the nth substance listed
Conditions: 101 kPa, Liquid; for speed of sound: Sing-around technique in a fixed-path interferometer; for mass density: Vibrating tube method

C1CCOCC1 [tetrahydropyran] + c1ccccc1
Conditions | mass density, 298.15 K [kg/m3] | mass density, 303.15 K [kg/m3] | speed of sound, 298.15 K [m/s] | speed of sound, 303.15 K [m/s]
x1 = 0.0789 | 874.6 | 869.25 | 1298.9 | 1274
x1 = 0.1324 | 875.21 | 869.87 | 1298.2 | 1272.5
x1 = 0.1784 | 875.68 | 870.35 | 1297.5 | 1271.2
x1 = 0.2239 | 876.1 | 870.78 | 1296.6 | 1269.8
x1 = 0.2876 | 876.63 | 871.32 | 1295.2 | 1267.9
x1 = 0.3276 | 876.92 | 871.63 | 1294.2 | 1266.7
x1 = 0.3769 | 877.26 | 871.97 | 1292.9 | 1265.2
x1 = 0.4285 | 877.58 | 872.3 | 1291.4 | 1263.6
x1 = 0.4794 | 877.87 | 872.59 | 1289.8 | 1262
x1 = 0.5598 | 878.27 | 872.99 | 1287.2 | 1259.6
x1 = 0.6024 | 878.46 | 873.17 | 1285.8 | 1258.3
x1 = 0.6534 | 878.66 | 873.37 | 1284 | 1256.9
x1 = 0.7006 | 878.82 | 873.53 | 1282.3 | 1255.5
x1 = 0.7432 | 878.95 | 873.65 | 1280.7 | 1254.2
x1 = 0.7943 | 879.07 | 873.77 | 1278.8 | 1252.8
x1 = 0.8213 | 879.12 | 873.83 | 1277.7 | 1252
x1 = 0.8763 | 879.18 | 873.92 | 1275.4 | 1250.4
x1 = 0.9148 | 879.2 | 873.96 | 1273.7 | 1249.3
